Experimental data published in US20090318491A1 (priority 2006, published 2009).
Read-outs that look alike come from different tables or passages of the source.

Key:
hα4β2 = biological target: T1, hα4β2 (Homo sapiens, UniProt P17787+P43681); conditions: HEK293 cells; cited from earlier work
T1 construct: expressed in transfected cells; host or cells: HEK293 cells

C57BL/6J male mice [1] = format: in vivo
Text: Subjects were 12-week old male C57BL/6J mice (The Jackson Laboratory, Bar Harbor Me.). Subjects were housed 5 per cage under standardized conditions (12:12 light cycle with lights on at 7:00 am) and were allowed at least 7 days of rest before testing. Food and water were available ad libitum.
Placebo cage-mate controls received an injection of saline.
The tail suspension test took place between 2:00 pm and 5:00 pm. […] Immediately after injection, each animal was placed in a clean cage and transferred to the testing room.
Approximately 1 cm from the end, each mouse's tail was taped (Scotch 35 Vinyl Electrical Tape) to a paperclip. Mice were suspended by the tail approximately 80 cm above the floor and the duration of immobility, defined as the absence of all movement except for those required for respiration, was recorded by an observer for 6 minutes. The animals were then returned to the holding room.

α4β2* nAChR = biological target: T2, α4β2* nAChR (Rattus norvegicus, UniProt P09483+P12390); test: biochemical; format: binding
T2 construct: Frozen rat brains were thawed slowly before the preparation of the P2 rat brain membrane fraction; from tissue; host or cells: rat brain (without cerebellum and medulla), P2 membrane fraction
Method: Preparation of Rat Brains
Frozen rat brains were thawed slowly before the preparation of the P2 rat brain membrane fraction (30-60 min on ice, afterwards at room temperature). […] After the determination of the wet weight (1.32 g on average), the brains were pressed into a pulp using a syringe and homogenised in saccharose buffer with a glass teflon homogenizator (Potter, 10 seconds). The tissue was then centrifuged (1,000×g, 20 min, 4° C.), the supernatant (S1) aspirated with a Pasteur pipette and stored on ice. The P1 pellet was re-suspended in saccharose buffer and the centrifugation was repeated. The supernatant S1′ was collected and added to the supernatant S1. The combined supernatants were centrifuged (25,000×g, 20 min, 4° C.), the supernatant S2 was removed and the pellet P2 collected and diluted with HSS-buffer. The buffer volume added was calculated on the basis of the wet weight in a ratio 1:2.
The final pellet was stored in aliquots at −80° C. On the day of the experiment, the P2 membrane fraction was thawed, diluted with HSS-buffer (30-fold volume), homogenised and centrifuged (35,000×g, 10 min, 4° C.). The collected pellet was suspended in HSS-buffer and used in the radioligand binding experiments.
Competition Assay Using (±)-[^3H]Epibatidine ([^3H]Epi) and Rat Brain P2-Fraction (α4β2*nAChR)
(§1) A dilution row of 6-9 concentrations of the test compound was prepared. Each assay sample, with a total volume of 500 μL contained 100 μL of the membrane protein (60 μg), 100 μL of (±)-[^3H]epibatidine (0.5 nM), 100 μL of HSS-buffer and 200 μL of the test compound Non-specific binding was determined in the presence of 300 μM (−)-nicotine tartrate salt. The samples were homogenised and incubated for 90 min at 22° C. The incubation was terminated by vacuum filtration through glass fibre filters pre-soaked in 1% poly(ethyleneimine). The filter were rinsed three times with TRIS-buffer, punched out and transferred into 4 mL scintillation vials. The scintillation vials were filled with scintillation cocktail (2 mL) and the radioactivity was measured using a liquid scintillation counter.
Assays were carried out in duplicate, triplicates or quadruplicates.
(§2) Biological evaluation of the compounds on various nicotinic actylcholine receptors (nAChRs) was conducted with cells described below. […] Functional agonist activity of the cytisines in cells using a fluorescence assay sensitive to changes in cytosolic calcium.

α3β4* nAChR = biological target: T3, α3β4* nAChR (Bos taurus, UniProt Q07263+Q8SPU6); test: biochemical; format: binding, calf
T3 construct: 100 μL of the calf adrenal membrane protein fraction (60-70 μg); from tissue; host or cells: calf adrenals, membrane fraction
Method: Preparation of Calf Adrenals
Frozen calf adrenals (−80° C.) were placed on ice for 30-60 min and allowed to thaw slowly before they were cut into small pieces. After determination of the wet weight (4-6 g), the tissue was homogenised in HSS-buffer (Ultraturrax at 750 rpm). The homogenate was centrifuged (30,000×g, 10 min, 4° C.), the pellets collected and washed. This procedure was repeated five times. The buffer volume used to re-suspend the pellets was calculated on the basis of the wet weight in a ratio 1:6.5.
The prepared tissues were stored in aliquots at −80° C. One hour before the experiments the tissues were slowly thawed, homogenised in HSS-buffer and centrifuged (25,000×g, 20 min, 4° C.). The pellets were re-suspended in fresh HSS-buffer and used for radioligand binding assays.
Competition Assay Using (±)-[^3H]Epibatidine ([^3H]Epi) and Calf Adrenals Membrane Fraction (α3β4*nAChR)
Each assay sample, with a total volume of 500 μL contained 200 μL of the test compound, 100 μL of (±)-[^3H]epibatidine, 100 μL of the calf adrenal membrane protein fraction (60-70 μg) and 100 μM of HSS-buffer. Non-specific binding was determined in the presence of 300 μM (−)-nicotine tartrate salt. The samples were homogenised and incubated for 90 min at 22° C. The incubation was terminated by vacuum filtration through glass fibre filters presoaked in 1% poly(ethyleneimine). The filters were rinsed three times with TRIS-buffer, punched out and transferred into 4 mL scintillation vials. The scintillation vials were filled with scintillation cocktail (2 mL) and the radioactivity was measured using a liquid scintillation counter.
Assays were carried out in duplicates, triplicates or quadruplicates

(α1)2β1γδ nAChR = biological target: T4, (α1)2β1γδ nAChR (Tetronarce californica, UniProt P02710+P02714+P02718); test: biochemical; format: binding, Torpedo californica
T4 construct: 100 μL of the Torpedo californica electroplax fraction (60-70 μg); from tissue; host or cells: Torpedo californica electric organ (electroplax) membranes
Method: Preparation of Torpedo californica Electroplax
Frozen samples of Torpedo californica electric organ (−80° C.) were placed on ice for 30-60 min and allowed to thaw slowly before the membrane preparation. The tissue was homogenised in an ice-cold HSS-buffer (Ultraturrax at 750 rpm) and centrifuged (30,000×g, 10 min, 4° C.). The pellets were collected, washed four times with HSS-buffer through re-homogenization and centrifugation at the same settings. The remaining pellets were collected, re-suspended in HSS and stored in aliquots at −80° C.
One hour before the experiments the tissues were slowly thawed, homogenised in HSS-buffer and centrifuged (25,000×g, 20 min, 4° C.). The pellets were re-suspended in fresh HSS-buffer and used for radioligand binding assays.
Competition Assay Using (±)-[^3H]Epibatidine ([^3H]Epi) and Torpedo californica Electroplax ((α1)2β1γδ nAChR)
as §1, with “μL contained 200 μL” for “μL contained 100 μL of the membrane protein (60 μg), 100 μL of (±)-[^3H]epibatidine (0.5 nM), 100 μL of HSS-buffer and 200 μL”, “the test compound, 100 μL of (±)-[^3H]epibatidine and 100 μL of the Torpedo californica electroplax fraction (60-70 μg). Non-specific binding” for “the test compound Non-specific binding”, “poly(ethyleneimine). The filters were rinsed” for “poly(ethyleneimine). The filter were rinsed”
Assays were carried out in duplicates, triplicate or quadruplicates.
as §2

C57BL/6J male mice [2] = conditions: acute i.p. injection of cytisine, FIG. 1
Method: C57BL/6J male mice, 34 months of age were used in these experiments. […] At 15 minutes, the mice were subject to a forced swim test (FST) and a recorded of immobility (time and patters) was provided. Control behavior was provided by testing locomotor activity at 20 minutes in an open field.

C57BL/6J male mice [3] = conditions: 21 days i.p. treatment, 24 hour food deprivation, FIG. 1
Method: A novelty-suppressed feeding test (NSFT) was conducted consisting of a 24 hour food deprivation, and a recording of the time to initiate a first feeding episode in an open-field, with controls for appetite and motivation (measure of weight loss and food intake).

c-fos = conditions: brain regions, FIG. 2
C57BL/6J male mice [4] = conditions: cytisine + 5HT1A/7 agonist 8OHDPAT

T1 sequence (P43681 29-627 limits assumed): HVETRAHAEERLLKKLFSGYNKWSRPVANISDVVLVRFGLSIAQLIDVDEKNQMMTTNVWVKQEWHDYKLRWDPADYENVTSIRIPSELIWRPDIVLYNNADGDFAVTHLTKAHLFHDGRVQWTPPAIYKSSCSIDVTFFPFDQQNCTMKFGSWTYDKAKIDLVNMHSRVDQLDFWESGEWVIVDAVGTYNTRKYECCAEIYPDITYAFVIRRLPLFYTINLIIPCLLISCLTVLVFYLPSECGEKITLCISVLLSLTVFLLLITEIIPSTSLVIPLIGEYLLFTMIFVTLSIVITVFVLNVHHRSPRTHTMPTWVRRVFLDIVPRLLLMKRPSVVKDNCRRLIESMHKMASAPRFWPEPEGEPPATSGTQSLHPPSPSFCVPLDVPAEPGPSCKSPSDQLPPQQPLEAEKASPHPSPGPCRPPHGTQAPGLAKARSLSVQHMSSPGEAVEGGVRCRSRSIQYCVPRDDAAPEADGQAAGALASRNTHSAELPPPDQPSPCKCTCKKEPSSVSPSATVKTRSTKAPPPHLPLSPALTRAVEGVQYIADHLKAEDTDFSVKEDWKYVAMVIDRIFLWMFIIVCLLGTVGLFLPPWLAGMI
T1 sequence (P17787 26-502): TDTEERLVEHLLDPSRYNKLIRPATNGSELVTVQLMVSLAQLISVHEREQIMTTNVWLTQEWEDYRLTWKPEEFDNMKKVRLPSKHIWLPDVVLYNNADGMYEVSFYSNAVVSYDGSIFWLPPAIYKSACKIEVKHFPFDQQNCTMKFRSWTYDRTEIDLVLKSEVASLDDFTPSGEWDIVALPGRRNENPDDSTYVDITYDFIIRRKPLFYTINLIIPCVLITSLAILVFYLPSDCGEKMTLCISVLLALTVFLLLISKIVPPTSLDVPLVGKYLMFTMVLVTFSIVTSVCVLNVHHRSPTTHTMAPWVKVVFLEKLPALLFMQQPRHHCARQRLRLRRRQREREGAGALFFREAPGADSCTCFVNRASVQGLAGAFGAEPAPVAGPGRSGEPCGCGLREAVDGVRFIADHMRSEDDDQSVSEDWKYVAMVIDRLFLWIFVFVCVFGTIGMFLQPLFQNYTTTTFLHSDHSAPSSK
T2 sequence (P12390 25-500): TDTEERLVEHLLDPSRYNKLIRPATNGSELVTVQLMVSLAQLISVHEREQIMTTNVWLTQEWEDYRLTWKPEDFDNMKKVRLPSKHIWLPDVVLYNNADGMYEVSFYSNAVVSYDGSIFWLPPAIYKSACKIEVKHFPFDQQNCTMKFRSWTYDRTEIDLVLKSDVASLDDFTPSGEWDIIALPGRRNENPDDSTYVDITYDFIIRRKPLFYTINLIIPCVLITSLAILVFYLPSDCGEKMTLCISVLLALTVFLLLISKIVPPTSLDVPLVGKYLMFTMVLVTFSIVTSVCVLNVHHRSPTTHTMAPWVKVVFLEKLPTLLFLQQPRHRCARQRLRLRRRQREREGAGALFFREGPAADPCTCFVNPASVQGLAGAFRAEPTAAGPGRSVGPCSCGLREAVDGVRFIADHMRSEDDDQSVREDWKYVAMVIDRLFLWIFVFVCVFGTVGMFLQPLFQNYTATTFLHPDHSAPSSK
T2 sequence (P09483 31-630): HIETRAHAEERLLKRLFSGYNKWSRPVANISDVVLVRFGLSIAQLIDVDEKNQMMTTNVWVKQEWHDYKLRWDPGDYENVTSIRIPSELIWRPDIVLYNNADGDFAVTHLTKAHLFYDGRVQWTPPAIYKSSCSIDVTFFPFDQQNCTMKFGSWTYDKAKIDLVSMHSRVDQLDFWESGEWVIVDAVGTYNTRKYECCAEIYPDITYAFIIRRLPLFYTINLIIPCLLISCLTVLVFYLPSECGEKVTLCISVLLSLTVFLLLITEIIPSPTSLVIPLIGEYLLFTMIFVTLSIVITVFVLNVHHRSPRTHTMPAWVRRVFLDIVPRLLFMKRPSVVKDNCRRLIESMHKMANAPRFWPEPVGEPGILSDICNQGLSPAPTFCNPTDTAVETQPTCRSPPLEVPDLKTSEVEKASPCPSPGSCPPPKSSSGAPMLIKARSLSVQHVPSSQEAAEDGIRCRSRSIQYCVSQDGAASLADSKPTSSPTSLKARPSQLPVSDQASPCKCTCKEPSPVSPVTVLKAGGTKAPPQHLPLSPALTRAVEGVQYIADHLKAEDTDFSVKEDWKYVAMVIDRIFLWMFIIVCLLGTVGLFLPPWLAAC
T4 sequence (P02710 25-461): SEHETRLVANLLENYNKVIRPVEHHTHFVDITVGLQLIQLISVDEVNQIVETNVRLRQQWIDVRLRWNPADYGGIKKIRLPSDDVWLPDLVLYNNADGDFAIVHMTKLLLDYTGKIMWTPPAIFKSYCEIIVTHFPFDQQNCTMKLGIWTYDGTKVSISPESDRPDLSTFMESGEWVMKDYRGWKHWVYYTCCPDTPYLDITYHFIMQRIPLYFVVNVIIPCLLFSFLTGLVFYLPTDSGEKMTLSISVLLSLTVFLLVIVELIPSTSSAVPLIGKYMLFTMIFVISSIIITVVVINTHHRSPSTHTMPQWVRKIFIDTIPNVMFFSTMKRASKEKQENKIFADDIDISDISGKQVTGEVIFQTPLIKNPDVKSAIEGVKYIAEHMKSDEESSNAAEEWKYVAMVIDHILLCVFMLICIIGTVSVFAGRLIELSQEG
T4 sequence (P02712 25-493, further chain): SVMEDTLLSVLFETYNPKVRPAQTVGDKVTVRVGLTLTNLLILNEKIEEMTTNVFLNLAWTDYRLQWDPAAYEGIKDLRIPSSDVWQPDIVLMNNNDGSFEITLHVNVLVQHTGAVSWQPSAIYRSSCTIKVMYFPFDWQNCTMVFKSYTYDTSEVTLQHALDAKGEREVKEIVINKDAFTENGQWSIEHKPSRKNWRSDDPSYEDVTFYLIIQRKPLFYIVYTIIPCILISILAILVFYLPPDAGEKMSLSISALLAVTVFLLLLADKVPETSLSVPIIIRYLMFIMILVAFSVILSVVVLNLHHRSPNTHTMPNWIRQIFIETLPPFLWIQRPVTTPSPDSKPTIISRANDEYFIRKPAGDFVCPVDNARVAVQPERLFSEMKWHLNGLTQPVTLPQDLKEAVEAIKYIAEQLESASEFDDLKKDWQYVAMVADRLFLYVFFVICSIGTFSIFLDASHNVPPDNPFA
T4 sequence (P02718 22-522): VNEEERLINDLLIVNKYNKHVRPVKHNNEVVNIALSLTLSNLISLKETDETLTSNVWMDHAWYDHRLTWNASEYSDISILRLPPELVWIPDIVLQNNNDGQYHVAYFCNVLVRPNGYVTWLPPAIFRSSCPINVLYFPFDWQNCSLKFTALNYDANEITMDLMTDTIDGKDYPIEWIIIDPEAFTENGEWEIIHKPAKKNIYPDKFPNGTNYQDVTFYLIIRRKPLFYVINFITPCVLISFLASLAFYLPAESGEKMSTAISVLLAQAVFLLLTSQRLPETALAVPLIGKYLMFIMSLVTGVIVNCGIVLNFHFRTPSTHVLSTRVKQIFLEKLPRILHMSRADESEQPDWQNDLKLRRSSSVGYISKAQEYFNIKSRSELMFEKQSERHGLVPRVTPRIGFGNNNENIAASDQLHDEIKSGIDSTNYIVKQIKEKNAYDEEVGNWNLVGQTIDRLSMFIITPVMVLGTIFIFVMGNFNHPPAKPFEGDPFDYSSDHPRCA
T4 sequence (P02714 18-506): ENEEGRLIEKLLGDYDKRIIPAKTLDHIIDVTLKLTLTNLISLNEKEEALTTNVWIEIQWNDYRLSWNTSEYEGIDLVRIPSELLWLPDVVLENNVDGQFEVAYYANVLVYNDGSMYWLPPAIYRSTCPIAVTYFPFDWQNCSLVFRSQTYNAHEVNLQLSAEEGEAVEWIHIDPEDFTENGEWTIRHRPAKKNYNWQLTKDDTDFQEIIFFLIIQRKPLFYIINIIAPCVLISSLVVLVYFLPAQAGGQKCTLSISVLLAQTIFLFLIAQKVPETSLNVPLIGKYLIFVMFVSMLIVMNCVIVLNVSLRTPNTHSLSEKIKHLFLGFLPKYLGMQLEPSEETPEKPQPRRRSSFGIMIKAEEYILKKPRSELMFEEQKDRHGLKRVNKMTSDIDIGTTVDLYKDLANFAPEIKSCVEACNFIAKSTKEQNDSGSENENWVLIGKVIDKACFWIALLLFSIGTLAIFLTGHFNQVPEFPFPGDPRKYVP
T3 sequence (Q07263 22-495): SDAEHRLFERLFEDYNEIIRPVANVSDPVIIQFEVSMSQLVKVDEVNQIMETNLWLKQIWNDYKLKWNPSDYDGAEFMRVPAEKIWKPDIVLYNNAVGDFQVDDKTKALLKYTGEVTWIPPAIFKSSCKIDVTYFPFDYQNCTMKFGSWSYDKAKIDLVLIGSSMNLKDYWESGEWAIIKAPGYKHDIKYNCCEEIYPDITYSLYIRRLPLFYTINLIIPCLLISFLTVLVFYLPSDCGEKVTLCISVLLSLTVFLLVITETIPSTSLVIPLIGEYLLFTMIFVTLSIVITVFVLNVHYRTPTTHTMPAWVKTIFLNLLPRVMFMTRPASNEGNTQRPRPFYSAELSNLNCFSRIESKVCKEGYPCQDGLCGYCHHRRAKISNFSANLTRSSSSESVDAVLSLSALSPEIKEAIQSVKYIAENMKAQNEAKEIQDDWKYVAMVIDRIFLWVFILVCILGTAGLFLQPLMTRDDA
T3 sequence (Q8SPU6 20-496): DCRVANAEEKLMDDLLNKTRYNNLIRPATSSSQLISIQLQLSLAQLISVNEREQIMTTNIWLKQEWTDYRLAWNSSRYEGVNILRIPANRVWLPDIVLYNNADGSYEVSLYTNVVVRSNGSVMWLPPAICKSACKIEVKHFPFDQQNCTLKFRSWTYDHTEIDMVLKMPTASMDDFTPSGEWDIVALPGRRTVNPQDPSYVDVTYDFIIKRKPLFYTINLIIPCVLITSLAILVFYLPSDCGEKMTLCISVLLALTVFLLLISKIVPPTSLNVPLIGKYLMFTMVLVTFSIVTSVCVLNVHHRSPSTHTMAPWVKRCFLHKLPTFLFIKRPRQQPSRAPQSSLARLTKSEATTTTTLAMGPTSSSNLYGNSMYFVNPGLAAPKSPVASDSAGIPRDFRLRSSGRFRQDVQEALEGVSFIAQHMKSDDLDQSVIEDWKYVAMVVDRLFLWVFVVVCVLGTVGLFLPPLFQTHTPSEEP

Q: With `c1ccc(-c2ccc3c(c2)CC2CNCC3C2)cc1` (stereo not drawn) [57j] as the molecule, how does the Ki (hα4β2) read?
A: The Ki was 500 nM.

Q: Which Ki (hα4β2) does the source give for `Nc1cccc(-c2ccc3c(c2)CC2CNCC3C2)c1` (stereo not drawn) [57m] here?
A: Its Ki is 500 nM.

Q: For `O=c1c(-c2cccnc2)ccc2n1CC1CNCC2C1` (stereo not drawn) [compound 1], which “mean duration of immobility in tail suspension test” value (C57BL/6J male mice [1]; acute i.p., […] (1.5 mg/kg elsewhere in the source), 45 minutes after injection, vs saline, p=0.014, FIG. 3) is on record?
A: Its value is “significantly less mobile”.

Q: Which Ki (α4β2* nAChR) does the source give for `O=c1cccc2n1C[C@@H]1CNC[C@H]2C1` [compound 27, 1,2,3,4,5,6-hexahydro-1,5-methano-pyrido[1,2-a][1,5]diazocin-8-one] here?
A: The Ki was 0.122 nM.

Q: And the Ki (α3β4* nAChR)?
A: Its Ki is 19 nM.

Q: What about the Ki ((α1)2β1γδ nAChR) of the same molecule?
A: The Ki was 1300 nM.

Q: What about the “immobility in tail suspension test” value (C57BL/6J male mice [1]; acute i.p. injection of cytisine, FIG. 1) of the same molecule?
A: Its value is “generalized antidepressant-like profile”.

Q: And the “immobility in tail suspension test” value (C57BL/6J male mice [1]; cytisine, doses lower than 1 mg/kg)?
A: Its value is “did not yield any significant effects”.

Q: What about the “immobility in forced swim test” value (C57BL/6J male mice [2]) of the same molecule?
A: The value was “generalized antidepressant-like profile”.

Q: And the “time to initiate first feeding episode in novelty-suppressed feeding test” value (C57BL/6J male mice [3])?
A: Its value is “generalized antidepressant-like profile”.

Q: What about the “neuronal activity (c-fos immunostaining)” value (c-fos) of the same molecule?
A: Its value is “Reductions of neuronal activity in the amygdala, hypothalamus and in the nucleus accumbens”.

Q: And the “potentiation of cytisine effects” value (C57BL/6J male mice [4])?
A: Its value is “potentiation”.
